The text below walks through data of US20200113901A1, “METHODS OF USING EHMT2 INHIBITORS” (Epizyme, Inc., priority 2017, published 2020).

Assay [1] concerns H3K9me2 (H3 di methyl K9). The assay can be described thus: H3K9me2 western blot in Prader Willi Syndrome patient fibroblast cell lines. Format: cell-based, human. Conditions: PWS patient fibroblast cell lines GM21889 and GM21890; 0.25 μM, 1 μM, 5 μM; 7 days; western blot densitometry; FIG. 1. As to the method:
(§1) Fibroblast cell lines were obtained from Coriell Institute (GM21889 and GM21890). Cells were plated in 6 well plates at 0.13 or 0.26 e6 cells per well. Cells were treated for 7 days with 0, 0.25 μM, 1 μM, or 5 μM Compound No. 205 or 4 μM UNC0638 (positive control) with reseeding into 100 mm dishes and retreatment at day 4. On day 7 cells were lysed in 1X RIPA buffer (Millipore, #20-188) with 0.1% SDS and Protease Inhibitor Cocktail tablet (Roche, #04693159001), and sonicated on ice before being spun at 4° C. Clarified supernatant was assayed for protein concentration by BCA (Pierce, #23225). 25 μg of lysate was used for western blots. Antibodies used for Western blotting include H3 (4499; Cell Signaling) at 1:1000, H3K9me2 (ab1220; Abcam) at 1:1000, SNRPN (PA 1775; BosterBio) at 1:1000, and β-actin (ab8224; Abcam) at 1:2500. Imaging was performed using a Licor Odyssey, and changes in the target band were quantified by densitometry. Ratios between H3K9me2 and H3 were calculated and compound treated samples were normalized to controls (DMSO). Increases in SNRPN protein expression was observed upon increasing concentrations of Compound No. 205. See, e.g., FIGS. 1 and 2.

A further assay deals with SNRPN protein. Kind of assay: SNRPN protein induction (western blot) in Prader Willi Syndrome patient fibroblast cell lines. The assay is classed as cell-based, human. Conditions: PWS patient fibroblast cell lines GM21889 and GM21890, increasing concentrations 0.25 μM, 1 μM, 5 μM, 7 days, FIG. 2. The protocol:
as §1

In the case of `CNc1cc(C)nc(Nc2ccc(OC)c(OCCCN3CCCC3)c2)n1` [Compound No. 205], the “H3 di methyl K9 (ratio H3K9me2 to H3, normalized to DMSO control)” value in assay [1] was “decrease”. Besides, the SNRPN protein expression result in the assay with SNRPN protein is “Increases”.
